Measured values as given in article PMC9221290, “Alkaloids of Dicranostigma franchetianum (Papaveraceae) and Berberine Derivatives as a New Class of Antimycobacterial Agents” (Biomolecules, 2022).
Converted amounts (≈) assume the structure as drawn. Where two headings read alike, the source gives them in different places.

What was measured:
[1] = test system: Mtb H37Ra ITM-M006710 (ATCC 9431); assay: Antimycobacterial microdilution broth assay (resazurin), Mtb H37Ra; format: cell-based, Mycobacterium tuberculosis
[2] = test system: Mycolicibacterium aurum DSM 43999 (ATCC 23366); assay: Antimycobacterial microdilution broth assay (resazurin), M. aurum; format: cell-based; conditions: 72 h; for MIC M. aurum: microdilution broth, resazurin; for MIC: Mycolicibacterium aurum, read-out: MIC M. aurum, microdilution broth, resazurin, 72 h
[3] = test system: Mycobacterium avium DSM 44156 (ATCC 25291); assay: Antimycobacterial microdilution broth assay (resazurin), M. avium; format: cell-based; conditions: 96 h; for MIC: Mycobacterium avium, read-out: MIC M. avium, microdilution broth, resazurin, 96 h
[4] = test system: Mycolicibacterium smegmatis DSM 43465 (ATCC 607); assay: Antimycobacterial microdilution broth assay (resazurin), M. smegmatis; format: cell-based; conditions: 48 h; for MIC M. smegmatis: microdilution broth, resazurin; for MIC: Mycolicibacterium smegmatis, read-out: MIC M. smegmatis, microdilution broth, resazurin, 48 h
[5] = test system: Mycobacterium kansasii DSM 44162 (ATCC 12478); assay: Antimycobacterial microdilution broth assay (resazurin), M. kansasii; format: cell-based; conditions: Mycobacterium kansasii, 96 h, read-out: MIC M. kansasii, microdilution broth, resazurin, 96 h
HepG2 cells = assay: cells; conditions: Homo sapiens, HepG2, 24 h, read-out: HepG2 IC50, MTT, 24 h incubation
[6] = microdilution broth, resazurin, 120 h
[7] = Mycobacterium tuberculosis, 120 h, read-out: MIC Mtb H37Ra, microdilution broth, resazurin, 120 h
[8] = Mycobacterium tuberculosis, read-out: MIC Mtb H37Ra (µM), calculated from MIC (µg/mL) and MW
[9] = Mycobacterium tuberculosis, 120 h, microdilution broth, resazurin, 120 h, read-out: MIC Mtb H37Ra
[10] = Mycobacterium tuberculosis, calculated from MIC (µg/mL) and MW, read-out: MIC Mtb H37Ra

Row | Compound | MIC M. aurum [2] [µg/mL] | MIC [1, 8] [µM] | MIC [2] [µg/mL] | MIC [3] [µg/mL] | MIC [5] [µg/mL] | MIC [4] [µg/mL] | MIC [1, 9] [µg/mL] | MIC [1, 10] [µM] | also measured
1 | protopine [compound 6] | ≥500 | – | – | – | – | – | – | – | MIC ([1]; calculated from MIC (µg/mL) and MW, read-out: MIC Mtb H37Ra): ≥1416 µM; MIC Mtb H37Ra [1, 6]: ≥500 µg/mL; MIC M. avium ([3]; microdilution broth, resazurin): 250 µg/mL; MIC M. smegmatis [4]: ≥500 µg/mL
2 | COc1cc2c(cc1O)[C@@H]1Cc3ccc(OC)c(OC)c3CN1CC2 [compound 13, isocorypalmine] | – | ≥ 733 | ≥ 250 | ≥ 250 | ≥ 250 | ≥ 250 | – | – | MIC [1, 7]: ≥ 250 µg/mL
3 | COc1cc2c(cc1OC)C(=O)Cc1ccc3c(c1CN(C)CC2)OCO3 [compound 8, cryptopine] | – | – | ≥ 125 | ≥ 125 | ≥ 125 | ≥ 125 | ≥ 125 | ≥ 339 | –
4 | COc1cc2c(cc1OC)-c1c(OC)c(OC)cc3c1[C@H](C2)N(C)CC3 [compound 11, glaucine] | – | ≥ 352 | 125 (≈ 352 µM) | 125 (≈ 352 µM) | 62.5 (≈ 176 µM) | ≥ 250 | – | – | MIC [1, 7]: 125 µg/mL
5 | COc1cccc2c1C(=O)c1c(O)c3c(c(O)c1C2=O)C[C@@](O)(C(=O)CO)C[C@@H]3O[C@H]1C[C@H](N)[C@H](O)[C@H](C)O1 [doxorubicine, reference compound] | – | – | – | – | – | – | – | – | IC50 (HepG2 cells): 30.4 ± 1.74 µM
6 | COc1ccc2c(c1OC)CN(C)CCc1cc3c(cc1C(=O)C2)OCO3 [compound 7, allocryptopine] | – | – | ≥ 250 | ≥ 250 | 250 (≈ 677 µM) | ≥ 250 | ≥ 250 | ≥ 678 | –
7 | O=C(O)c1cn(C2CC2)c2cc(N3CCNCC3)c(F)cc2c1=O [ciprofloxacin, reference compound] | 0.01562 (≈ 0.0471 µM) | – | – | 0.5 (≈ 1.51 µM) | 0.25 (≈ 0.754 µM) | 0.0625 to 0.125 (≈ 0.189 to 0.377 µM) | 0.125 to 0.25 | 0.75 | MIC Mtb H37Ra [1, 6]: 0.25 µg/mL (≈ 0.754 µM); MIC M. aurum ([2]; listed as CPX): 0.0078 to 0.0156 µg/mL; MIC M. smegmatis [4]: 0.0625 µg/mL (≈ 0.189 µM)
8 | COc1ccc2c(c1O)-c1c(OC)c(OC)cc3c1[C@H](C2)N(C)CC3 [compound 10, isocorydine] | – | – | ≥ 500 | ≥ 500 | 125 (≈ 366 µM) | ≥ 500 | ≥ 500 | ≥ 1430 | –
9 | CO[C@H]1/C=C/O[C@@]2(C)Oc3c(C)c(O)c4c(O)c(c(/C=N/N5CCN(C)CC5)c(O)c4c3C2=O)NC(=O)/C(C)=C\C=C\[C@H](C)[C@H](O)[C@@H](C)[C@@H](O)[C@@H](C)[C@H](OC(C)=O)[C@@H]1C [rifampicin, reference compound] | 0.39 (≈ 0.474 µM) | 0.0075 | 0.39 to 0.78 (≈ 0.474 to 0.948 µM) | – | – | – | – | – | MIC Mtb H37Ra ([1]; microdilution broth, resazurin, 120 h, listed as RIF): 0.00156 to 0.0031 µg/mL
